Among the data in PubChem BioAssay AID328 (DTP/NCI, 2004) are T/C values, retold here.

The experiment concerns BDF1 mice, P388 leukemia ip, median survival T/C. In words: NCI In Vivo Anticancer Drug Screen. Data for tumor model P388 Leukemia (intraperitoneal) in B6D2F1 (BDF1) mice. Particulars: endpoint: median survival time, higher = longer survival. The method, boiled down: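 Transplantable tumour in mice; compound vs vehicle dosing; survival scored; ratio of treated to control reported.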

Setting [1] is: dose: 100.0 mg/kg/injection, schedule: Q01DX009 (ip), vehicle: saline with Tween-80.
[2] abbreviates: dose: 100.0 mg/kg/injection, schedule: Q04DX003 (ip), vehicle: saline with Tween-80.
Where [3] appears, read: dose: 200.0 mg/kg/injection, schedule: Q01DX009 (ip), vehicle: saline with Tween-80.
Setting [4] is: dose: 400.0 mg/kg/injection, schedule: Q01DX009 (ip), vehicle: saline with Tween-80.
Where [5] appears, read: dose: 400.0 mg/kg/injection, schedule: Q04DX003 (ip), vehicle: saline with Tween-80.
Setting [6] is: dose: 50.0 mg/kg/injection, schedule: Q01DX009 (ip), vehicle: saline with Tween-80.
Setting [7] is: dose: 3.12 mg/kg/injection, schedule: Q01DX009 (ip), vehicle: saline.
[8] abbreviates: dose: 6.25 mg/kg/injection, schedule: Q01DX009 (ip), vehicle: saline.
Where [9] appears, read: dose: 12.5 mg/kg/injection, schedule: Q01DX009 (ip), vehicle: saline.

Values joined by “and” are separate entries in the source; they are usually repeats but may differ in a detail not shown here. Equal entries are not always repeated. Toxic doses and inconclusive results are not listed.

`NC(=O)CN1C(=O)c2ccccc2C1=O`: the T/C was 100 % of control under setting [1]; 95 % of control under setting [2]; 90 % of control under setting [3]; 100 % of control (dose: 200.0 mg/kg/injection, schedule: Q04DX003 (ip), vehicle: saline with Tween-80); 100 % of control under setting [4]; 100 % of control under setting [5].
Regarding `O=C(CCl)Oc1ccc(-c2ccccc2)cc1Br`, the T/C under setting [6] is 105 % of control, the T/C under setting [1] was 102 % of control, the T/C under setting [3] is 103 % of control and the T/C under setting [4] was 88 % of control.
`CC(C)CCC[C@@H](C)[C@H]1CC[C@H]2[C@@H]3CC=C4C[C@@H](OC(=O)Cc5ccc(N(CCCl)CCCl)cc5)CC[C@]4(C)[C@H]3CC[C@]12C`: the T/C (dose: 6.25 mg/kg/injection, schedule: Q01DX010 (sc), vehicle: steriod suspending solution) was 87 % of control; the T/C (dose: 12.5 mg/kg/injection, schedule: Q01DX010 (sc), vehicle: steriod suspending solution) was 91 % of control; the T/C (dose: 25.0 mg/kg/injection, schedule: Q01DX010 (sc), vehicle: steriod suspending solution) was 91 % of control; the T/C (dose: 50.0 mg/kg/injection, schedule: Q01DX010 (oral), vehicle: steriod suspending solution) is 104 % of control; the T/C (dose: 50.0 mg/kg/injection, schedule: Q01DX010 (sc), vehicle: steriod suspending solution) is 92 % of control; the T/C (dose: 100.0 mg/kg/injection, schedule: Q01DX010 (oral), vehicle: steriod suspending solution) is 118 % of control. In addition, the T/C reads like this: (dose: 100.0 mg/kg/injection, schedule: Q01DX010 (sc), vehicle: steriod suspending solution) 111 % of control; (dose: 200.0 mg/kg/injection, schedule: Q01DX010 (sc), vehicle: steriod suspending solution) 107 % of control; (dose: 400.0 mg/kg/injection, schedule: Q01DX010 (oral), vehicle: steriod suspending solution) 172 % of control; (dose: 400.0 mg/kg/injection, schedule: Q01DX010 (sc), vehicle: steriod suspending solution) 100 % of control; (dose: 800.0 mg/kg/injection, schedule: Q01DX010 (oral), vehicle: steriod suspending solution) 118 % of control.
`Clc1ccc2c(c1)nnn2OC1CCCCC1`: the T/C runs as follows: under setting [6], 88 % of control; under setting [1], 92 % of control; under setting [3], 90 % of control.
On to `C[C@]12CC[C@H]3[C@@H](CCC4=CC(=O)CC[C@@]43C)[C@@H]1CC[C@@H]2OC(=O)Cc1ccc(N(CCCl)CCCl)cc1`, for which the T/C runs as follows: (dose: 64.0 mg/kg/injection, schedule: Q01DX009 (ip), vehicle: Klucel (hydroxypropylcellulose) (HPC)) 104 % of control and 105 % of control; under setting [1], 113 % of control; (dose: 128.0 mg/kg/injection, schedule: Q01DX009 (ip), vehicle: Klucel (hydroxypropylcellulose) (HPC)) 111 % of control and 123 % of control; (dose: 256.0 mg/kg/injection, schedule: Q01DX009 (ip), vehicle: Klucel (hydroxypropylcellulose) (HPC)) 157 % of control; (dose: 264.0 mg/kg/injection, schedule: Q04DX003 (ip), vehicle: saline with Tween-80) 120 % of control; under setting [4], 209 % of control. For the same compound, the T/C was 154 % of control under setting [5]; 115 % of control (dose: 512.0 mg/kg/injection, schedule: Q01DX009 (ip), vehicle: Klucel (hydroxypropylcellulose) (HPC)); 200 % of control (dose: 600.0 mg/kg/injection, schedule: Q04DX003 (ip), vehicle: saline with Tween-80).
As to `CCOC(=O)C(C)[P+](c1ccccc1)(c1ccccc1)c1ccccc1` (stereo unspecified), the T/C runs as follows: (dose: 1.0 mg/kg/injection, schedule: Q01DX009 (ip), vehicle: saline) 115 % of control; (dose: 1.5 mg/kg/injection, schedule: Q01DX009 (ip), vehicle: saline) 103 % of control; (dose: 1.5 mg/kg/injection, schedule: Q04DX003 (ip), vehicle: saline) 90 % of control; (dose: 2.25 mg/kg/injection, schedule: Q01DX009 (ip), vehicle: saline) 100 % of control; (dose: 3.0 mg/kg/injection, schedule: Q01DX009 (ip), vehicle: saline) 118 % of control; (dose: 3.0 mg/kg/injection, schedule: Q04DX003 (ip), vehicle: saline) 104 % of control. For the same compound, under “dose: 6.0 mg/kg/injection, schedule: Q04DX003 (ip), vehicle: saline”, the T/C is 90 % of control.
As to `COc1ccc2c(c1OC)C1C3CC=CC3C2C2=[N+]1CCc1cc3c(cc12)OCO3` (stereo unspecified), the T/C under setting [7] was 95 % of control; the T/C (dose: 6.25 mg/kg/injection, schedule: Q01DX009 (ip), vehicle: Klucel (hydroxypropylcellulose) (HPC)) is 114 % of control; the T/C under setting [8] is 100 % of control; the T/C (dose: 12.5 mg/kg/injection, schedule: Q01DX009 (ip), vehicle: Klucel (hydroxypropylcellulose) (HPC)) is 90 % of control; the T/C under setting [9] is 108 % of control; the T/C (dose: 18.0 mg/kg/injection, schedule: Q01DX009 (ip), vehicle: Klucel (hydroxypropylcellulose) (HPC)) was 86 % of control.
Turning to `O/N=C/c1ccccc1O.O/N=C/c1ccccc1O.[Cu]`, the T/C was 118 % of control (dose: 6.25 mg/kg/injection, schedule: Q04DX003 (ip), vehicle: saline with Tween-80); 109 % of control (dose: 12.5 mg/kg/injection, schedule: Q04DX003 (ip), vehicle: saline with Tween-80); 114 % of control (dose: 16.5 mg/kg/injection, schedule: Q04DX003 (ip), vehicle: saline with Tween-80); 123 % of control (dose: 25.0 mg/kg/injection, schedule: Q04DX003 (ip), vehicle: saline with Tween-80).
Take `COc1ccc2c(c1)N(C)CCCC2=O`: the T/C reads like this: under setting [7], 91 % of control; under setting [8], 103 % of control; under setting [9], 91 % of control; (dose: 25.0 mg/kg/injection, schedule: Q01DX009 (ip), vehicle: saline) 87 % of control and 91 % of control; (dose: 50.0 mg/kg/injection, schedule: Q01DX009 (ip), vehicle: saline) 108 % of control and 113 % of control; (dose: 50.0 mg/kg/injection, schedule: Q04DX003 (ip), vehicle: saline) 99 % of control. The T/C by setting is: (dose: 100.0 mg/kg/injection, schedule: Q01DX009 (ip), vehicle: saline) 92 % of control; (dose: 100.0 mg/kg/injection, schedule: Q04DX003 (ip), vehicle: saline) 103 % of control; (dose: 200.0 mg/kg/injection, schedule: Q01DX009 (ip), vehicle: saline) 89 % of control; (dose: 200.0 mg/kg/injection, schedule: Q04DX003 (ip), vehicle: saline) 99 % of control.
Take `CC(C)(C)[O][Pb]([c]1ccccc1)([c]1ccccc1)[c]1ccccc1`: the T/C runs as follows: (dose: 0.39 mg/kg/injection, schedule: Q01DX009 (ip), vehicle: saline) 100 % of control; (dose: 0.85 mg/kg/injection, schedule: Q04DX003 (ip), vehicle: saline) 105 % of control; (dose: 1.02 mg/kg/injection, schedule: Q01DX009 (ip), vehicle: saline) 104 % of control and 115 % of control; (dose: 1.7 mg/kg/injection, schedule: Q04DX003 (ip), vehicle: saline) 110 % of control; (dose: 2.34 mg/kg/injection, schedule: Q01DX009 (ip), vehicle: saline) 113 % of control and 120 % of control; (dose: 3.4 mg/kg/injection, schedule: Q01DX009 (ip), vehicle: saline) 90 % of control. Also, the T/C is 90 % of control (dose: 3.4 mg/kg/injection, schedule: Q04DX003 (ip), vehicle: saline); 104 % of control (dose: 5.0 mg/kg/injection, schedule: Q04DX003 (ip), vehicle: saline); 88 % of control (dose: 5.75 mg/kg/injection, schedule: Q01DX001 (ip), vehicle: Klucel (hydroxypropylcellulose) (HPC)); 86 % of control (dose: 7.7 mg/kg/injection, schedule: Q04DX003 (ip), vehicle: saline).
For `c1ccc2c(Nc3ccc(C4=NCCN4)cc3)nnc(Nc3ccc(C4=NCCN4)cc3)c2c1`, the T/C is, setting by setting: (dose: 19.0 mg/kg/injection, schedule: Q04DX003 (ip), vehicle: saline with Tween-80) 119 % of control; (dose: 29.0 mg/kg/injection, schedule: Q04DX003 (ip), vehicle: saline with Tween-80) 115 % of control; (dose: 44.0 mg/kg/injection, schedule: Q04DX003 (ip), vehicle: saline with Tween-80) 119 % of control; (dose: 66.0 mg/kg/injection, schedule: Q04DX003 (ip), vehicle: saline with Tween-80) 154 % of control and 168 % of control; under setting [2], 163 % of control; (dose: 150.0 mg/kg/injection, schedule: Q04DX003 (ip), vehicle: saline with Tween-80) 195 % of control.
